Test results from US8937048B2, “Anti-angiogenic compounds” (Covx Technologies Ireland, Limited, priority 2008, dated 2015).
Where a SMILES comes first, the peptide text is derived from it. Bridges are numbered along the chain shown (N, C = ends). [ ]: non-standard residue; d: D form. The star is where a group is joined. Phe(4-COOH) = N[C@@H](Cc1ccc(C(=O)O)cc1)C(=O)O; X1 = O=C(COCC(=O)*)Nc1ccc(CCC(=O)N2CCC2=O)cc1; Nva = CCC[C@H](N)C(=O)O

Target: T1, recombinant human VEGF165 (Homo sapiens, UniProt P15692)
T1 sequence (P15692 27-191 isoform P15692-4): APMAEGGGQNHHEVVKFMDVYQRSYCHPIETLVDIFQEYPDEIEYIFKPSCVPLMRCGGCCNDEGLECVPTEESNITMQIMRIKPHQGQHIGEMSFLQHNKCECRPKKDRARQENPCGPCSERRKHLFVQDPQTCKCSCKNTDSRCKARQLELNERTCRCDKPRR
Test: VEGF peptide binding assay (competition ELISA, VEGF165 binding to coated VEGFR2/Fc)
Details: not given
In short: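 VEGFR2/Fc was coated, and peptides (0.128–10,000 nM, N-acetyl, C-amide) were preincubated with 25 ng/ml human VEGF165 and added for 1 h at RT. Bound VEGF was detected with biotinylated anti-VEGF, streptavidin-HRP and TMB at OD450. IC50 came from sigmoid dose-response fits of OD450 versus concentration.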

| Structure (SMILES) | IC50 [µM] |
| --- | --- |
| CC[C@H](C)[C@@H]1NC(=O)[C@H](CC(=O)O)NC(=O)[C@@H](NC(=O)[C@H](CC(N)=O)NC(=O)[C@@H]2CCCN2C(=O)[C@H](CCC(=O)O)NC(=O)[C@@H](NC(C)=O)C(C)C)CSSC[C@@H](C(=O)N[C@@H](Cc2ccccc2)C(=O)N[C@@H](CCC(=O)O)C(=O)N[C@@H](CCCNC(=N)N)C(=O)N[C@@H](CC(C)C)C(=O)N[C@@H](Cc2ccc(O)cc2)C(=O)NCC(=O)N2CCC[C@H]2C(=O)N[C@@H](Cc2ccccc2)C(N)=O)NC(=O)[C@H](CCC(=O)O)NC(=O)[C@H](Cc2c[nH]c3ccccc23)NC(=O)[C@H](C(C)C)NC(=O)[C@H](Cc2c[nH]c3ccccc23)NC(=O)[C@H](CCSC)NC(=O)[C@H](C(C)C)NC(=O)[C@H](Cc2c[nH]cn2)NC1=O [Compound 77, VEPNCDIHVMWVWECFERLYGPF] (Ac-VEPNCDIHVMWVWECFERLYGPF-NH2; disulfide 5-15 (inferred)) | 0.0018 |
| CC[C@H](C)[C@@H]1NC(=O)[C@H](CC(=O)O)NC(=O)[C@@H](NC(=O)[C@H](CC(N)=O)NC(=O)[C@@H]2CCCN2C(=O)[C@H](CCC(=O)O)NC(=O)[C@@H](NC(C)=O)C(C)C)CSSC[C@@H](C(=O)N[C@@H](Cc2ccccc2)C(=O)N[C@@H](CCC(=O)O)C(=O)N[C@@H](CCCNC(=N)N)C(=O)N[C@@H](CC(C)C)C(=O)N[C@@H](Cc2ccc(O)cc2)C(=O)N[C@@H](CCCCN)C(N)=O)NC(=O)[C@H](CCC(=O)O)NC(=O)[C@H](Cc2c[nH]c3ccccc23)NC(=O)[C@H](C(C)C)NC(=O)[C@H](Cc2c[nH]c3ccccc23)NC(=O)[C@H](CCSC)NC(=O)[C@H](C(C)C)NC(=O)[C@H](Cc2c[nH]cn2)NC1=O [Compound 58, VEPNCDIHVMWVWECFERLYK] (Ac-VEPNCDIHVMWVWECFERLYK-NH2; disulfide 5-15 (inferred)) | 0.0251 |
| CC[C@H](C)[C@@H]1NC(=O)[C@H](CC(=O)O)NC(=O)[C@@H](NC(=O)[C@H](CC(N)=O)NC(=O)[C@@H]2CCCN2C(=O)[C@H](CCC(=O)O)NC(=O)[C@@H](NC(C)=O)C(C)C)CSSC[C@@H](C(=O)N[C@@H](Cc2ccccc2)C(=O)N[C@@H](CCC(=O)O)C(=O)N[C@@H](CCCNC(=N)N)C(=O)N[C@@H](CC(C)C)C(=O)N[C@@H](Cc2ccc(O)cc2)C(=O)NCC(=O)N[C@@H](CC(C)C)C(N)=O)NC(=O)[C@H](CCC(=O)O)NC(=O)[C@H](Cc2c[nH]c3ccccc23)NC(=O)[C@H](C(C)C)NC(=O)[C@H](Cc2c[nH]c3ccccc23)NC(=O)[C@H](CCSC)NC(=O)[C@H](C(C)C)NC(=O)[C@H](Cc2c[nH]cn2)NC1=O [Compound 72, VEPNCDIHVMWVWECFERLYGL] (Ac-VEPNCDIHVMWVWECFERLYGL-NH2; disulfide 5-15 (inferred)) | 0.0048 |
| CC[C@H](C)[C@@H]1NC(=O)[C@H](CC(=O)O)NC(=O)[C@@H](NC(=O)[C@H](CC(N)=O)NC(=O)[C@@H]2CCCN2C(=O)[C@H](CCC(=O)O)NC(=O)[C@@H](NC(C)=O)C(C)C)CSSC[C@@H](C(=O)N[C@@H](Cc2ccccc2)C(=O)N[C@@H](CCC(=O)O)C(=O)N[C@@H](CCCNC(=N)N)C(=O)N[C@@H](CC(C)C)C(=O)N[C@@H](Cc2ccc(O)cc2)C(=O)NCC(=O)N[C@@H](CC(C)C)C(=O)N[C@@H](Cc2ccc(O)cc2)C(N)=O)NC(=O)[C@H](CCC(=O)O)NC(=O)[C@H](Cc2c[nH]c3ccccc23)NC(=O)[C@H](C(C)C)NC(=O)[C@H](Cc2c[nH]c3ccccc23)NC(=O)[C@H](CCSC)NC(=O)[C@H](C(C)C)NC(=O)[C@H](Cc2c[nH]cn2)NC1=O [Compound 44, VEPNCDIHVMWVWECFERLYGLY] (Ac-VEPNCDIHVMWVWECFERLYGLY-NH2; disulfide 5-15 (inferred)) | 0.0546 |
| CC[C@H](C)[C@@H]1NC(=O)[C@H](CC(=O)O)NC(=O)[C@@H](NC(=O)[C@H](CC(N)=O)NC(=O)[C@@H]2CCCN2C(=O)[C@H](CCC(=O)O)NC(=O)[C@@H](NC(C)=O)C(C)C)CSSC[C@@H](C(=O)N[C@@H](Cc2ccccc2)C(=O)N[C@@H](CCC(=O)O)C(=O)N[C@@H](CCCNC(=N)N)C(=O)N[C@@H](CC(C)C)C(=O)N[C@@H](CCSC)C(=O)NCC(=O)N[C@@H](CC(C)C)C(=O)N[C@H](C(N)=O)[C@@H](C)O)NC(=O)[C@H](CCC(=O)O)NC(=O)[C@H](Cc2c[nH]c3ccccc23)NC(=O)[C@H](C(C)C)NC(=O)[C@H](Cc2c[nH]c3ccccc23)NC(=O)[C@H](CCSC)NC(=O)[C@H](C(C)C)NC(=O)[C@H](Cc2c[nH]cn2)NC1=O [Compound 59, VEPNCDIHVMWVWECFERLMGLT] (Ac-VEPNCDIHVMWVWECFERLMGLT-NH2; disulfide 5-15 (inferred)) | 0.025 |
| CC[C@H](C)[C@@H]1NC(=O)[C@H](CC(=O)O)NC(=O)[C@@H](NC(=O)[C@H](CC(N)=O)NC(=O)[C@@H]2CCCN2C(=O)[C@H](CCC(=O)O)NC(=O)[C@@H](NC(C)=O)C(C)C)CSSC[C@@H](C(=O)N[C@@H](Cc2ccccc2)C(=O)N[C@@H](CCC(=O)O)C(=O)N[C@@H](CCCNC(=N)N)C(=O)N[C@@H](CC(C)C)C(=O)N[C@@H](Cc2ccc(O)cc2)C(=O)NCC(=O)N[C@H](C(=O)N[C@@H](CCC(N)=O)C(N)=O)C(C)C)NC(=O)[C@H](CCC(=O)O)NC(=O)[C@H](Cc2c[nH]c3ccccc23)NC(=O)[C@H](C(C)C)NC(=O)[C@H](Cc2c[nH]c3ccccc23)NC(=O)[C@H](CCSC)NC(=O)[C@H](C(C)C)NC(=O)[C@H](Cc2c[nH]cn2)NC1=O [Compound 74, VEPNCDIHVMWVWECFERLYGVQ] (Ac-VEPNCDIHVMWVWECFERLYGVQ-NH2; disulfide 5-15 (inferred)) | 0.004 |
| CC[C@H](C)[C@H](NC(=O)[C@H](CC(C)C)NC(=O)[C@H](CCCNC(=N)N)NC(=O)[C@H](CCC(=O)O)NC(=O)[C@H](Cc1ccccc1)NC(=O)[C@@H]1CSSC[C@H](NC(=O)[C@H](CC(N)=O)NC(=O)[C@@H]2CCCN2C(=O)[C@H](CCC(=O)O)NC(=O)[C@@H](NC(C)=O)C(C)C)C(=O)N[C@@H](CC(=O)O)C(=O)N[C@@H]([C@@H](C)CC)C(=O)N[C@@H](Cc2c[nH]cn2)C(=O)N[C@@H](C(C)C)C(=O)N[C@@H](CCSC)C(=O)N[C@@H](Cc2c[nH]c3ccccc23)C(=O)N[C@@H](C(C)C)C(=O)N[C@@H](Cc2c[nH]c3ccccc23)C(=O)N[C@@H](CCC(=O)O)C(=O)N1)C(=O)N[C@@H](CCCCN)C(N)=O [Compound 57, VEPNCDIHVMWVWECFERLIK] (Ac-VEPNCDIHVMWVWECFERLIK-NH2; disulfide 5-15 (inferred)) | 0.0254 |

Tested on: not listed separately
Test: Mouse half-life (T 1/2) and screening half-life of Ang2 binding compounds
Format: in vivo, Swiss Webster mice
Details: mouse, in vivo; Table 5, screening half life (in parentheses), shorter test period; read-out: T ½ (Sc) hours, screening half life
Procedure: For “screening” T ½, test compounds were intravenously administered into male Swiss Webster mice. Blood samples were taken from 4 mice per time point via retroorbital sinus bleed at the following time points: 0.08, 5, and 32 hours. Blood level of test compounds were determined by ELISA. The data were reported as the percentage of test compounds at 32 hours versus 5 min. Normal T ½ was calculated in a similar fashion, after undergoing additional data analysis using WinNonlin version 4.1 (Pharsight Corporation). The data was fit to a model based upon the shape of the curve (i.e. a bi-exponential decline will be fit to a two compartment model, etc.) The criteria for best fit (i.e. lowest % CV) was based on iterative re-weighted least squares.

| Structure (SMILES) | half-life [h] |
| --- | --- |
| CSCC[C@H](NC(=O)[C@H](Cc1ccccc1)NC(=O)[C@H](CCC(N)=O)NC(=O)[C@H](CC(=O)O)NC(=O)[C@H](Cc1ccc(O)cc1)NC(=O)[C@H](CCC(C)C)NC(=O)[C@@H](NC(=O)[C@H](CCCCNC(=O)COCC(=O)Nc1ccc(CCC(=O)N2CCC2=O)cc1)NC(=O)[C@H](CC(=O)O)NC(=O)[C@H](CC(C)C)NC(=O)[C@H](CCC(=O)O)NC(=O)[C@H](CC(=O)O)NC(=O)[C@H](CC(C)C)NC(=O)[C@@H]1CCCN1C(=O)[C@H](CCC(N)=O)NC(=O)[C@H](Cc1ccc(O)cc1)NC(=O)[C@H](CCCCNC(C)=O)NC(=O)[C@H](CCC(N)=O)NC(C)=O)[C@@H](C)O)C(=O)N[C@@H](CC(C)C)C(=O)N[C@@H](CCC(N)=O)C(=O)N[C@@H](CCC(N)=O)C(=O)NCC(N)=O [Compound 4042] | 42 |
| CSCC[C@H](NC(=O)[C@H](Cc1ccccc1)NC(=O)[C@H](CCC(N)=O)NC(=O)[C@H](CC(=O)O)NC(=O)[C@H](Cc1ccc(C(=O)O)cc1)NC(=O)[C@H](CC(C)C)NC(=O)[C@@H](NC(=O)[C@H](CCCCNC(=O)COCC(=O)Nc1ccc(CCC(=O)N2CCC2=O)cc1)NC(=O)[C@H](CC(=O)O)NC(=O)[C@H](CC(C)C)NC(=O)[C@H](CCC(=O)O)NC(=O)[C@H](CC(=O)O)NC(=O)[C@H](CC(C)C)NC(=O)[C@@H]1CCCN1C(=O)[C@H](CCC(N)=O)NC(=O)[C@H](Cc1ccc(O)cc1)NC(=O)[C@H](CC(N)=O)NC(=O)[C@H](CCC(N)=O)NC(C)=O)[C@@H](C)O)C(=O)N[C@@H](CC(C)C)C(=O)N[C@@H](CCC(N)=O)C(=O)N[C@@H](CCC(N)=O)C(=O)NCC(N)=O [Compound 4057] (Ac-QNYQPLDELDK(X1)TL[Phe(4-COOH)]DQFMLQQG-NH2) | 11 |
| CCC[C@H](NC(=O)[C@@H](NC(=O)[C@H](CCCCNC(=O)COCC(=O)Nc1ccc(CCC(=O)N2CCC2=O)cc1)NC(=O)[C@H](CC(=O)O)NC(=O)[C@H](CC(C)C)NC(=O)[C@H](CCC(=O)O)NC(=O)[C@H](CC(=O)O)NC(=O)[C@H](CC(C)C)NC(=O)[C@@H]1CCCN1C(=O)[C@H](CCC(N)=O)NC(=O)[C@H](Cc1ccc(O)cc1)NC(=O)[C@H](CCCCNC(C)=O)NC(=O)[C@H](CCC(N)=O)NC(C)=O)[C@@H](C)O)C(=O)N[C@@H](Cc1ccc(O)cc1)C(=O)N[C@@H](CC(=O)O)C(=O)N[C@@H](CCC(N)=O)C(=O)N[C@@H](Cc1ccccc1)C(=O)N[C@@H](CCSC)C(=O)N[C@@H](CC(C)C)C(=O)N[C@@H](CCC(N)=O)C(=O)N[C@@H](CCC(N)=O)C(=O)NCC(N)=O [Compound 4041] (Ac-QK(Ac)YQPLDELDK(X1)T[Nva]YDQFMLQQG-NH2) | 36 |
